# Where “and” joins values, the source holds several entries; their conditions need not be identical. Equal values may be shown once.
# Experiments:
# [1] = Freeze/thaw stability tests in human plasma (three cycles, about −20° C.); assay type: physicochemical; settings: for Change in concentration [%]: 3 F/T cycles vs Baseline; for Accuracy: single QC replicate
# Description: (§1) Each analyte had to be stable in human plasma for at least three freeze-thaw cycles (for repeated sample preparations) and at ambient temperature for at least eight hours (maximal duration of sample preparation). Measured samples should be stable for a second injection when the first analytical run was not valid. The analytes had to be stable in the matrix at the intended storage temperatures and study duration.
# (§2) An analyte was considered stable at one of the above tests when no increase or decrease of the analyte concentration of more than 15% for the mean of at least three analyzed QC samples at low, medium and at high concentration was observed.
# Seven of each LLOQ, QCLOW, QCMID, QCHIGH, and ULOQ sample in human plasma were stored at about −20° C. for at least 24 hours and thawed unassisted at ambient temperature. When completely thawed, the samples were refrozen for at least 12 hours under the same conditions. The freeze-thaw cycle was repeated two more times. After the third cycle the samples were worked up and analyzed. The concentrations in the frozen and thawed samples were compared with freshly processed QC samples. Concentrations were calculated based on two freshly prepared CALs measured at the beginning and the other at the end of the validation run.
# [2] = Bench-top (short-term) stability test in human plasma, 8 hours at ambient temperature; assay type: physicochemical; settings: for Change in concentration [%]: 8 h at RT vs Baseline; for Accuracy: single QC replicate
# Description: as §1, §2
# Seven of each LLOQ, QCLOW, QCMID, QCHIGH, and ULOQ samples in human plasma were thawed at ambient temperature and kept at this temperature for 8 hours. Afterwards, the samples were worked up and analyzed. The values of the concentrations in the “short-term” samples were compared with freshly processed QC samples. Concentrations were calculated based on two freshly prepared CAL sets measured at the beginning and the end of the validation run.
# [3] = ULOQ: 10000 pg/ml, 3 F/T cycles
smiles,measurement,setting,value
"CCN(CC)C(=O)C1C=C2c3cccc4c3C(O)(C[C@H]2N(C)C1)C(=O)N4 (stereo partly drawn) [O-H-LSD, 2,3-dihydro-3-hydroxy-2-oxo lysergide]","Found at, Intra-assay Mean","[1]; QCLOW: 25 pg/ml, 3 F/T cycles",24.2 pg/mL
same,Change in concentration [%],[1]; QCLOW: 25 pg/ml,1.57%
same,Accuracy,"[1]; QCLOW: 25 pg/ml, 3 F/T cycles",109% and 96.6% and 91.4% and 101% and 97.5% and 89.3% and 92.9%
same,"Accuracy, Intra-assay Mean","[1]; QCLOW: 25 pg/ml, Baseline",95.3%
same,"Found at, Intra-assay Mean","[1]; QCLOW: 25 pg/ml, Baseline",23.8 pg/mL
same,Accuracy,"[1]; QCLOW: 25 pg/ml, Baseline",94.7% and 91.5% and 99.8%
same,"Accuracy, Intra-assay Mean","[1]; QCMID: 100 pg/ml, 3 F/T cycles",98.7%
same,"Found at, Intra-assay Mean","[1]; QCMID: 100 pg/ml, 3 F/T cycles",98.7 pg/mL
same,Change in concentration [%],[1]; QCMID: 100 pg/ml,3.7%
same,Accuracy,"[1]; QCMID: 100 pg/ml, 3 F/T cycles",95.4% and 102% (2×) and 98.9% and 100% and 94.8% and 97.3%
same,"Accuracy, Intra-assay Mean","[1]; QCMID: 100 pg/ml, Baseline",95.2%
same,"Found at, Intra-assay Mean","[1]; QCMID: 100 pg/ml, Baseline",95.2 pg/mL
same,Accuracy,"[1]; QCMID: 100 pg/ml, Baseline",95.7% and 98.6% and 91.4%
same,"Accuracy, Intra-assay Mean",[1]; [3],94.9%
same,"Found at, Intra-assay Mean",[1]; [3],9490 pg/mL
same,Change in concentration [%],[1]; ULOQ: 10000 pg/ml,−0.589%
same,Accuracy,[1]; [3],92.9% and 92.6% and 96.2% and 96% and 94.8% and 94.4% and 97.2%
same,"Accuracy, Intra-assay Mean","[1]; ULOQ: 10000 pg/ml, Baseline",95.4%
same,"Found at, Intra-assay Mean","[1]; ULOQ: 10000 pg/ml, Baseline",9540 pg/mL
same,Accuracy,"[1]; ULOQ: 10000 pg/ml, Baseline",94.2% and 92.3% and 99.7%
same,Change in plasma concentration following three freeze/thaw cycles,"[1]; human plasma QC samples, −20° C., three freeze/thaw cycles, vs freshly processed QC",≤ 6.46%
same,"Accuracy, Intra-assay Mean","[2]; LLOQ: 10 pg/ml, 8 h at RT",91.2%
same,"Found at, Intra-assay Mean","[2]; LLOQ: 10 pg/ml, 8 h at RT",9.13 pg/mL
same,Change in concentration [%],[2]; LLOQ: 10 pg/ml,0.176%
same,Accuracy,"[2]; LLOQ: 10 pg/ml, 8 h at RT",90.4% and 94.3% and 63.8* % and 77.5* % and 83.1% and 101% and 87.9%
same,"Accuracy, Intra-assay Mean","[2]; LLOQ: 10 pg/ml, Baseline",91.1%
same,"Found at, Intra-assay Mean","[2]; LLOQ: 10 pg/ml, Baseline",9.11 pg/mL
same,Accuracy,"[2]; LLOQ: 10 pg/ml, Baseline",95% and 88.9% and 89.4%
same,"Accuracy, Intra-assay Mean","[2]; QCHIGH: 1000 pg/ml, 8 h at RT",95.1%
same,"Found at, Intra-assay Mean","[2]; QCHIGH: 1000 pg/ml, 8 h at RT",951 pg/mL
same,Change in concentration [%],[2]; QCHIGH: 1000 pg/ml,−1.51%
same,Accuracy,"[2]; QCHIGH: 1000 pg/ml, 8 h at RT",96% and 100% and 91.8% and 94.6% and 93.6% and 95.8% and 93.9%
same,"Accuracy, Intra-assay Mean","[2]; QCHIGH: 1000 pg/ml, Baseline",96.6%
same,"Found at, Intra-assay Mean","[2]; QCHIGH: 1000 pg/ml, Baseline",966 pg/mL
same,Accuracy,"[2]; QCHIGH: 1000 pg/ml, Baseline",97.7% and 96.2% and 95.9%
same,"Accuracy, Intra-assay Mean","[2]; QCLOW: 25 pg/ml, 8 h at RT",96.4%
same,"Found at, Intra-assay Mean","[2]; QCLOW: 25 pg/ml, 8 h at RT",24.1 pg/mL
same,Change in concentration [%],[2]; QCLOW: 25 pg/ml,1.1%
same,Accuracy,"[2]; QCLOW: 25 pg/ml, 8 h at RT",89.2% and 93.3% and 97.6% and 102% and 103% and 97.1% and 91.9%
same,"Accuracy, Intra-assay Mean","[2]; QCLOW: 25 pg/ml, Baseline",95.3%
same,"Found at, Intra-assay Mean","[2]; QCLOW: 25 pg/ml, Baseline",23.8 pg/mL
same,Accuracy,"[2]; QCLOW: 25 pg/ml, Baseline",94.7% and 91.5% and 99.8%
same,"Accuracy, Intra-assay Mean","[2]; QCMID: 100 pg/ml, 8 h at RT",95.8%
same,"Found at, Intra-assay Mean","[2]; QCMID: 100 pg/ml, 8 h at RT",95.8 pg/mL
same,Change in concentration [%],[2]; QCMID: 100 pg/ml,0.652%
same,Accuracy,"[2]; QCMID: 100 pg/ml, 8 h at RT",97.1% and 91.5% and 95.2% and 98.3% and 94.6% and 99.6% and 94.5%
same,"Accuracy, Intra-assay Mean","[2]; QCMID: 100 pg/ml, Baseline",95.2%
same,"Found at, Intra-assay Mean","[2]; QCMID: 100 pg/ml, Baseline",95.2 pg/mL
same,Accuracy,"[2]; QCMID: 100 pg/ml, Baseline",95.7% and 98.6% and 91.4%
same,"Accuracy, Intra-assay Mean","[2]; ULOQ: 10000 pg/ml, 8 h at RT",91.1%
same,"Found at, Intra-assay Mean","[2]; ULOQ: 10000 pg/ml, 8 h at RT",9110 pg/mL
same,Change in concentration [%],[2]; ULOQ: 10000 pg/ml,−4.52%
same,Accuracy,"[2]; ULOQ: 10000 pg/ml, 8 h at RT",90.2% and 93% and 90.7% and 88.2% and 93.2% and 91.5% and 91.1%
same,"Accuracy, Intra-assay Mean","[2]; ULOQ: 10000 pg/ml, Baseline",95.4%
same,"Found at, Intra-assay Mean","[2]; ULOQ: 10000 pg/ml, Baseline",9540 pg/mL
same,Accuracy,"[2]; ULOQ: 10000 pg/ml, Baseline",94.2% and 92.3% and 99.7%
same,Change in plasma concentration after 8 hours storage at room temperature,"[2]; human plasma QC samples, 8 hours at room temperature, vs freshly processed QC",≤ 4.52%
